Results as given in patent publication US12173313B2, “Assembly of functionally integrated human forebrain spheroids and methods of use thereof” (The Board of Trustees of the Leland Stanford Junior …, priority 2017, dated 2024).

How the values were obtained:
[1] = system: Dlxi1/2b::eGFP+ cells in fused hSS-hCS; experiment: Live imaging of interneuron migration in fused hSS-hCS (control); type: cell-based, human; details: 100 nM, before vs after exposure
Method: Live imaging and analysis of Dlxi1/2b::eGFP+ cell migration. The migration of Dlxi1/2b::eGFP+ cells was imaged for 8-12 hrs under environmentally controlled conditions (37° C., 5% CO2) in intact, fused hSS-hCS using a confocal microscope with a motorized stage (Leica SP8). Fused hSS-hCS were transferred to a well of a 96-well plate (glass-bottom plates, Corning) in 200 μl of NM. Spheroids were incubated in the environmentally controlled chamber for 30-60 min prior to imaging. During a given recording session, up to 8 fused hSS-hCS were imaged at a depth of 50-150 μm depth and a rate of 15-20 min/frame. For pharmacological manipulation, cells were imaged for 12 hrs to record a baseline. Then, the media was carefully removed and new media with small molecules (AMD3100 at 100 nM; nimodipine at 5 μM; or roscovitine at 15 μM) was gently added to the well. The field of view was readjusted to capture the previous region of interest and cells in fused hSS-hCS were imaged for an additional 12 hrs. For imaging of Dlxi1/2b::eGFP+ cells, E17-E18 slices were placed on inserts and infected with Dlxi1/2b::eGFP lentivirus after 24 hrs. The slices were imaged 2 days later using a Leica SP8 confocal microscope (see above). For measuring the branch to soma length ratio of human cells on mouse slices, hSSs infected with Dlxi1/2b::eGFP lentivirus were dissociated and placed on top of E13-14 mouse slices, which were placed on cell culture inserts 8-24 hrs before. The hSS-derived Dlxi1/2b::eGFP+ cells were imaged with the Leica SP8 confocal microscope system at least 48 hrs later. The migration of mouse Dlxi1/2b::eGFP+ cells or Cav1.2-electroporated cells and the migration of human fetal Dlxi1/2b::eG FP-infected cells both imaged using the same setting as described for intact, fused hSS-hCS. Slices were kept on the cell culture inserts during imaging. For quantification of migration of Dlxi1/2b::eGFP+ cells after plating on coverslips, intact hSS were plated on Poly-ornithine/laminin (Sigma) coated glass coverslips (15 mm; Werner). Cells were imaged 7-10 days after using a confocal microscope (Leica SP8) as described above. ImageJ and the Chemotaxis & Migration Tool (Ibidi) were used for the post-acquisition analysis of cell mobility. The StackReg plugin in ImageJ was used to correct for minor drifts during imaging. To estimate the length of individual saltations, Dlxi1/2b::eGFP cells displaying a swelling of the soma were identified, and distance (in μm) to the new position of the soma following nucleokinesis was recorded manually. The time necessary for this movement was used to calculate the speed when mobile. […] Path directness was calculated as the E/A ratio. […]

[2] = target: element-binding protein (CBP) (Homo sapiens, UniProt Q92793); details: cited from earlier work
Chain of element-binding protein (CBP) (Q92793 whole entry): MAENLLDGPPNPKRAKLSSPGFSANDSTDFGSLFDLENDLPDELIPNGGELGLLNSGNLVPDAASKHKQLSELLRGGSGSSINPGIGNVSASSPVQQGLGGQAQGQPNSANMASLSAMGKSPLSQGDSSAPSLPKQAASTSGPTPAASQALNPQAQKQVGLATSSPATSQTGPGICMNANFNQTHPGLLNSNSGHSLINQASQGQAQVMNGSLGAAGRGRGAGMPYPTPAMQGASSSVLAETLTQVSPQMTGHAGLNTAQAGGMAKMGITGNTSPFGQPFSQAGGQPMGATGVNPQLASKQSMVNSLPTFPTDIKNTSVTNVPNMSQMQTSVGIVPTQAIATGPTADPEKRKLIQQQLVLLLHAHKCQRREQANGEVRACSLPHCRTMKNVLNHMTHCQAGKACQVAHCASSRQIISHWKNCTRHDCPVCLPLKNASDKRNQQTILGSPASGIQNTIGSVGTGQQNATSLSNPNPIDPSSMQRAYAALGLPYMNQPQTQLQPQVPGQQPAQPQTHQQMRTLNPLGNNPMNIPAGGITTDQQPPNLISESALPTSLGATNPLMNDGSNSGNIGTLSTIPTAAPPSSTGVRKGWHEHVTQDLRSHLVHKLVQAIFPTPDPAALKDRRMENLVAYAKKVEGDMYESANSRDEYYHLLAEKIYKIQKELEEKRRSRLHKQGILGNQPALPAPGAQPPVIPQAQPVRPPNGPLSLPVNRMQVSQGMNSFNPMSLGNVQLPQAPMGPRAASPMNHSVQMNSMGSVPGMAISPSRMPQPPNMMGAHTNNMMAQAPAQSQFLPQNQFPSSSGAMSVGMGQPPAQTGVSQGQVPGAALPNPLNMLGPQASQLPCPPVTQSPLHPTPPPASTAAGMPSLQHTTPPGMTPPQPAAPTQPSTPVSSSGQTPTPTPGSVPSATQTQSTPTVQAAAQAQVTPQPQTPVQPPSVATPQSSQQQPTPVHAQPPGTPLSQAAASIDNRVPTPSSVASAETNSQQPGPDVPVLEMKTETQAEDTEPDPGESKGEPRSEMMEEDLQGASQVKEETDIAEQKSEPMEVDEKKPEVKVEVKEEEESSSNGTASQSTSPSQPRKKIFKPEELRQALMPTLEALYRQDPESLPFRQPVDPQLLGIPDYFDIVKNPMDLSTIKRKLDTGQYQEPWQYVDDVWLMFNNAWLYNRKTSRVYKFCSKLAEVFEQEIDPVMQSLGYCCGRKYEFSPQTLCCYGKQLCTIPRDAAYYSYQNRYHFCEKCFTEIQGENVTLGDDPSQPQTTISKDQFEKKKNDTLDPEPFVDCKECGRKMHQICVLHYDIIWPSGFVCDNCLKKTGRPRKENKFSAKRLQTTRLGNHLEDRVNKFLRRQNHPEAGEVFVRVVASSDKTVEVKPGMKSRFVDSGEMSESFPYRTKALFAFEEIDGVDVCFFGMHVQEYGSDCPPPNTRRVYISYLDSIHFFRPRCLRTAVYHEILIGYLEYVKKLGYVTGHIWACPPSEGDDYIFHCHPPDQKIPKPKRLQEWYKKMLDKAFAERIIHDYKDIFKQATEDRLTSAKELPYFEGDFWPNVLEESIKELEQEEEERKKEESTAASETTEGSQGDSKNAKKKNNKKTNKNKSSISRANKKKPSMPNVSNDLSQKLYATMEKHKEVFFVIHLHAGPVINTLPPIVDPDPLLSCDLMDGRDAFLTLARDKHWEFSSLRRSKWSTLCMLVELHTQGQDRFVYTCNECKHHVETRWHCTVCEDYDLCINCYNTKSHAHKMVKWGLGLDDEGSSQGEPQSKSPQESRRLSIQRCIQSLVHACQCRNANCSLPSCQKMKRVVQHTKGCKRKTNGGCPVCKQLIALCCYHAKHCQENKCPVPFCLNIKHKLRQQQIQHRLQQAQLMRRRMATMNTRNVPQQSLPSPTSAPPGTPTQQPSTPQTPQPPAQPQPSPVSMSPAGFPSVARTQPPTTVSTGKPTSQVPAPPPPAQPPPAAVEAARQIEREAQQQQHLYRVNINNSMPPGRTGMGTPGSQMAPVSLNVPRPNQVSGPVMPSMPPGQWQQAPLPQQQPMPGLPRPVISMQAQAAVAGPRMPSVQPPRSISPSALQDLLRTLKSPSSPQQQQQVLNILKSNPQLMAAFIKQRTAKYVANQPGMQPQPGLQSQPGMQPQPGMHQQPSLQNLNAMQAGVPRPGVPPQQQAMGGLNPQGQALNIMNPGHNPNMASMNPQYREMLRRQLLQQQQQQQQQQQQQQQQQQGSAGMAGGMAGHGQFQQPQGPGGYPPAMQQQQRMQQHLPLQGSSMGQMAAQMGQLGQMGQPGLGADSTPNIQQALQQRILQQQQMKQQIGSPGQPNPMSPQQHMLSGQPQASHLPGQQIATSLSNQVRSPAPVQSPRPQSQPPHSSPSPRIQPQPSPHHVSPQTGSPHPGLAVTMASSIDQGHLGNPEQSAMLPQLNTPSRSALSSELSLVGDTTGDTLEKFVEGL

[3] = system: Wnt processing and secretion; details: cell-free assay; read-out: IC50, inhibition of Wnt processing and secretion; cited from earlier work
Porcn = target: T1, Porcn (Homo sapiens, UniProt Q9H237); details: read-out: EC50, Porcn inhibition; cited from earlier work
T1 sequence (Q9H237 1-461): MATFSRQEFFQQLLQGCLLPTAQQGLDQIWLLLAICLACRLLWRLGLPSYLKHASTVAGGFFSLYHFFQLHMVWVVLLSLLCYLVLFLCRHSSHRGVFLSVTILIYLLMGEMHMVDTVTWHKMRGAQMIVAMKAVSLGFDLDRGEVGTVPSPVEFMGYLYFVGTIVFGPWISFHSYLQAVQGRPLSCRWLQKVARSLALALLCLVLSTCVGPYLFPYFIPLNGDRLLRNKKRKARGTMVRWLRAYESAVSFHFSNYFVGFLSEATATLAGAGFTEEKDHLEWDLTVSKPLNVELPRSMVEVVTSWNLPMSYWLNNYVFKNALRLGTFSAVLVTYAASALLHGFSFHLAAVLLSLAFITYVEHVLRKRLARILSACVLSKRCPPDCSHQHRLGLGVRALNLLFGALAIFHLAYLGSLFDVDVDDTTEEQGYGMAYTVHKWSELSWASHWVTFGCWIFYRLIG

Wnt signaling = details: TM3 cells; read-out: IC50, inhibition of Wnt signaling; cited from earlier work
Smo = Smo (Homo sapiens, UniProt Q99835); details: read-out: KD, Smo heptahelical domain; cited from earlier work
Chain of Smo (Q99835 28-787): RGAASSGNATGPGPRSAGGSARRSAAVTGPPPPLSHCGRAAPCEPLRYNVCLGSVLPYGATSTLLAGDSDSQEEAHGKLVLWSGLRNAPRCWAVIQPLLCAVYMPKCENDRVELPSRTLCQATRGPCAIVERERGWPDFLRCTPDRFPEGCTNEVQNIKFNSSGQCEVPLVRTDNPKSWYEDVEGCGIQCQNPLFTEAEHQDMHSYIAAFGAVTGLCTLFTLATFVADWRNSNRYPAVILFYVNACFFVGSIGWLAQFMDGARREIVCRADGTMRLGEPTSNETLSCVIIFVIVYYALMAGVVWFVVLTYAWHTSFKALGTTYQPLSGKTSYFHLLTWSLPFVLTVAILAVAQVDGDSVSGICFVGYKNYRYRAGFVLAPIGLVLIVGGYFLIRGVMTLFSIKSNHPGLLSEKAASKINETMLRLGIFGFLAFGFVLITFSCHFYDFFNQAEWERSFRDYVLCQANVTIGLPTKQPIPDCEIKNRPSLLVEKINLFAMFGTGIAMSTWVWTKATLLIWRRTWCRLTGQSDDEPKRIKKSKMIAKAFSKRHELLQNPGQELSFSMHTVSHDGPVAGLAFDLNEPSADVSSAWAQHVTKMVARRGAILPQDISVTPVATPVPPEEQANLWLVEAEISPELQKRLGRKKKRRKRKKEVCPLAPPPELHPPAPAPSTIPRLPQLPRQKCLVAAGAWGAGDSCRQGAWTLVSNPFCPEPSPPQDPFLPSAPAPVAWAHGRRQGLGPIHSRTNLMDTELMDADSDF

TNKS2 = target: T2, TNKS2 (Homo sapiens, UniProt Q9H2K2); details: cited from earlier work
T2 sequence (Q9H2K2 1-1166): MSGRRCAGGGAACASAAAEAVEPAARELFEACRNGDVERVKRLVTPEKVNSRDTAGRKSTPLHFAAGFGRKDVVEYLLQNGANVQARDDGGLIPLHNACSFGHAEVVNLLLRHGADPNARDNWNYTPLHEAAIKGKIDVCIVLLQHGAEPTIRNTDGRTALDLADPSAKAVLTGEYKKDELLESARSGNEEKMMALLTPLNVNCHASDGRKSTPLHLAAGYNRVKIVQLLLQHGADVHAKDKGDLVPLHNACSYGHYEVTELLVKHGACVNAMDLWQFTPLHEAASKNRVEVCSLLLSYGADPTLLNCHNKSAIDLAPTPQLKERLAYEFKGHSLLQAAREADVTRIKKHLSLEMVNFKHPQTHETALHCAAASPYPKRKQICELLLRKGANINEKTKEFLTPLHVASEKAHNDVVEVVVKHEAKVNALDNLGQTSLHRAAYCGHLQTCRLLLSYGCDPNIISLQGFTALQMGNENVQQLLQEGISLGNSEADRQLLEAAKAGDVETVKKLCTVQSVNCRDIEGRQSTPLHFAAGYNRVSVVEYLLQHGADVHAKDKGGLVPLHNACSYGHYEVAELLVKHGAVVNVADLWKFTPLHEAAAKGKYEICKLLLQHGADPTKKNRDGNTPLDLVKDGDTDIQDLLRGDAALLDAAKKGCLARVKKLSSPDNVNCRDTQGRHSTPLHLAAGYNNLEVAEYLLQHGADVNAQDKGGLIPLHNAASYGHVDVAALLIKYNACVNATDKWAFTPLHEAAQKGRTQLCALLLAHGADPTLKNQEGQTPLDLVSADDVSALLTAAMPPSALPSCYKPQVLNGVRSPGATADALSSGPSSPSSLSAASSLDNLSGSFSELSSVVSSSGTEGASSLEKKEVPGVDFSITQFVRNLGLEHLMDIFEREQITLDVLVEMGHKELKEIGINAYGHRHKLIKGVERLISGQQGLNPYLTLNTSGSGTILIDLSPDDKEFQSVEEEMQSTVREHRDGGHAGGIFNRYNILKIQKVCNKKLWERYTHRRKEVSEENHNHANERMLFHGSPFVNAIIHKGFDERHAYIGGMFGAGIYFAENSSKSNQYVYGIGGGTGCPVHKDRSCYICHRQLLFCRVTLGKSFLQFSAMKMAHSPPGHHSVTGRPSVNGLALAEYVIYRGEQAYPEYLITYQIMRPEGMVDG

[4] = target: Wnt3A-mediated activation of a multimerized TCF-binding site driving luciferase; details: HEK293 cells; cited from earlier work
hSS [5] = experiment: Fluo-4 calcium imaging in intact hSS; details: 7 days AlloP 100 nM combined with 3-day retinoic acid 100 nM (hSS-ISRA); ~day 50; P=0.006
Method: The generation of hCS from hiPSC was performed as previously described. […] For the generation of hSS, the medium was supplemented with additional small molecules during the first 23 days in culture; a schematic showing the recipes is presented in FIG. 8a). […] IWP-2 (5 μM; Selleckchem) from day 4 until day 24, and the SHH pathway agonist SAG (smoothened agonist; 100 nM; Selleckchem) from day 12 to day 24. The hSS-ISA condition also included IWP2 and SAG with the addition of allopregnanolone (AlloP 100 nM; Cayman Chemicals) from day 15 to day 23, while the hSS-ISRA condition included AlloP (100 nM) from day 15-23, and a brief exposure (day 12-15) to retinoic acid (RA 100 nM; Sigma). From day 25 to 42, the NM for both the hCS and hSS conditions, was supplemented with the growth factors BDNF (20 ng/ml; Peprotech) and NT3 (20 ng/ml; Peprotech) with medium changes every other day. From day 43 onwards, hCS and hSS were maintained in unsupplemented NM with medium changes every four to six days.
Fluo-4 calcium imaging in intact hSS. […] Spontaneous calcium activity was recorded for 10 min (one frame every 8-10 s) in one 10 μm z-stack plane. Fluorescence intensity (F) was exported as mean gray values in ImageJ. Signal decay was controlled by subtracting the mean fluorescence of the background (Fb). […]

hSS [6] = experiment: Characterization of hSS differentiation conditions (RT-qPCR, immunostaining); details: AlloP with or without RA (hSS-ISA, hSS-ISRA)
Method: For the generation of hSS, the medium was supplemented with additional small molecules during the first 23 days in culture; a schematic showing the recipes is presented in FIG. 8a). […] IWP-2 (5 μM; Selleckchem) from day 4 until day 24, and the SHH pathway agonist SAG (smoothened agonist; 100 nM; Selleckchem) from day 12 to day 24. The hSS-ISA condition also included IWP2 and SAG with the addition of allopregnanolone (AlloP 100 nM; Cayman Chemicals) from day 15 to day 23, while the hSS-ISRA condition included AlloP (100 nM) from day 15-23, and a brief exposure (day 12-15) to retinoic acid (RA 100 nM; Sigma). From day 25 to 42, the NM for both the hCS and hSS conditions, was supplemented with the growth factors BDNF (20 ng/ml; Peprotech) and NT3 (20 ng/ml; Peprotech) with medium changes every other day. From day 43 onwards, hCS and hSS were maintained in unsupplemented NM with medium changes every four to six days.
Immunohistochemistry. Cryosections were washed with PBS to remove excess OCT and blocked in 10% goat serum (NGS), 0.3% Triton X-100 diluted in PBS for 1 hr at room temperature. […]
Real time quantitative PCR (qPCR). mRNA was isolated using the RNeasy Mini Kit and RNase-Free DNase set (Qiagen), and template cDNA was prepared by reverse transcription using the SuperScript III First-Strand Synthesis SuperMix for qRT-PCR (Life Technologies). […]

[7] = system: Dlxi1/2b::eGFP cells that migrated into hCS; details: 10 μM; fused hSS-hCS slices
Method: (§1) Electrophysiology. […] Slicing was performed using a Leica VT1200 vibratome. Immediately after sectioning, slices were moved to a circulation chamber containing ACSF at 32° C.
(§2) For patch-clamp recording, cells were identified by the presence of a fluorescent reporter using an upright Axoscop II microscope (Zeiss). […] Cl− reversal was calculated to be at −91 mV according to the Nernst equation. […] The Cl− reversal potential was calculated to be 0 mV according to the Nernst equation. IPSCs were blocked by application of the GABAA receptor antagonist gabazine (10 μM, Abcam), which was added to superfused ACSF. EPSCs were blocked by application of the glutamate receptor antagonist kynurenic acid (1 mM, Abcam), which was added to superfused ACSF. Electrical simulation was delivered using a bipolar tungsten electrode (FHS) placed […] away from a recorded neuron. Stimulations were delivered to slices for 0.1 ms at […] and separated by at least 10 s. Inward EPSCs and outward IPSPs were recorded by filling the patch pipette with a low chloride internal solution (ECI−=−90 mV) and holding the cell at −40 mV, which is the midpoint between ECI− and EK+/Na+. […] Recordings were filtered at 10 kHz. Synaptic recordings were analyzed using custom software developed by J. R. H. (Wdetecta).

neurons in hSS = details: 10 μM; 250 μm sections of hSS
Method: as §1, §2

hCS neurons = experiment: Patch clamp recording of EPSCs in sliced hCS; type: cell-based, human; details: 1 mM, added to superfused ACSF
Method: Electrophysiology. […] Slicing was performed using a Leica VT1200 vibratome. […] Recordings were filtered at 10 kHz. […] Action potentials were analyzed using custom MATLAB (MathWorks) programs.

[8] = system: TS Dlxi1/2b::eGFP+ cells in fused hSS-hCS; experiment: Live imaging of interneuron migration in fused hSS-hCS from Timothy syndrome; type: cell-based, human; details: 15 μM, P<0.001
Method: Live imaging and analysis of Dlxi1/2b::eGFP+ cell migration. The migration of Dlxi1/2b::eGFP+ cells was imaged for 8-12 hrs under environmentally controlled conditions (37° C., 5% CO2) in intact, fused hSS-hCS using a confocal microscope with a motorized stage (Leica SP8). Fused hSS-hCS were transferred to a well of a 96-well plate (glass-bottom plates, Corning) in 200 μl of NM. Spheroids were incubated in the environmentally controlled chamber for 30-60 min prior to imaging. During a given recording session, up to 8 fused hSS-hCS were imaged at a depth of 50-150 μm depth and a rate of 15-20 min/frame. For pharmacological manipulation, cells were imaged for 12 hrs to record a baseline. […] The field of view was readjusted to capture the previous region of interest and cells in fused hSS-hCS were imaged for an additional 12 hrs. […] For quantification of migration of Dlxi1/2b::eGFP+ cells after plating on coverslips, intact hSS were plated on Poly-ornithine/laminin (Sigma) coated glass coverslips (15 mm; Werner). […] To estimate the length of individual saltations, Dlxi1/2b::eGFP cells displaying a swelling of the soma were identified, and distance (in μm) to the new position of the soma following nucleokinesis was recorded manually. […] Path directness was calculated as the E/A ratio. […]

c1cc(CN2CCCNCCNCCCNCC2)ccc1CN1CCCNCCNCCCNCC1 [AMD3100]
saltation length ([1]; P=0.006): significant reduction
speed when mobile ([1]; P=0.006): significant reduction
path directness ([1]; P=0.02): change
frequency of saltations ([1]; P=0.03): significant reduction

O=C1[C@H](Cc2ccc(O)cc2)N2C(=O)CCN(C(=O)NCc3ccccc3)[C@H]2CN1Cc1cccc2ccccc12 [ICG-001]
IC50 [2]: 3000 nM

Cc1ccc2nc(NC(=O)CSc3nc4c(c(=O)n3-c3ccccc3)SCC4)sc2c1 [IWP-2]
IC50 [3]: 27 nM

O=C(CSc1nc2c(c(=O)n1-c1ccccc1)SCC2)Nc1ccc(-c2ccccc2)cn1 [IWP-L6]
EC50 (Porcn): 0.5 nM

Cc1cc(-c2ncc(CC(=O)Nc3ccc(-c4cnccn4)cn3)cc2C)ccn1 [LGK-974]
IC50 (Wnt signaling): 0.4 nM

CNC1CCC(N(Cc2cccc(-c3ccncc3)c2)C(=O)c2sc3ccccc3c2Cl)CC1 (centres unmarked) [SAG]
Kd (Smo): 59 nM

COc1ccc(-n2c(SCCCN3C(=O)c4cccc5cccc(c45)C3=O)nnc2-c2ccncc2)cc1 [WIKI4]
IC50 (TNKS2): 15 nM

Cc1cc(-c2ccc(CC(=O)Nc3ccc(-c4cccnc4)cc3)cc2)ccn1 [Wnt-059]
IC50 [4]: 0.074 nM

CC(=O)[C@H]1CC[C@H]2[C@@H]3CC[C@H]4C[C@H](O)CC[C@]4(C)[C@H]3CC[C@]12C [allopregnanolone]
frequency of spontaneous calcium spikes (hSS [5]): significantly increased
subpallial fate, neurotransmitter identity and GABAergic subtypes in hSS (hSS [6]): did not alter

COc1ccc(-c2ccc(=N)n(CCCC(=O)O)n2)cc1 [gabazine]
evoked disynaptic IPSCs after electrical stimulation [7]: sensitive
spontaneous inhibitory postsynaptic responses (sIPSCs) (neurons in hSS): abolished

O=C(O)c1cc(=O)c2ccccc2[nH]1 [kynurenic acid]
EPSCs (hCS neurons): blocked

CC[C@H](CO)Nc1nc(NCc2ccccc2)c2ncn(C(C)C)c2n1 [roscovitine]
saltation length [8]: rescuing
